Measured values as given in US12263248B2, “Compounds and compositions for intracellular delivery of therapeutic agents” (ModernaTX, Inc., priority 2018, dated 2025).

Legend:
[1] = Particle size and polydispersity index of nanoparticle compositions (Zetasizer Nano ZS); format: physicochemical
Summary of the method: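 In 1×PBS, the compositions were sized on a Zetasizer Nano ZS, which also reported their polydispersity index.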

[2] = Encapsulation efficiency of RNA (QUANT-IT RIBOGREEN RNA assay); format: physicochemical; details: for EE (%): Table 1A; for % EE: Table 1D, for subcutaneous administration, # formulated with hEPO mRNA
Summary of the method: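 RiboGreen fluorescence (ex ~480, em ~520 nm) compared between intact samples and Triton X-100-lysed samples after 15 min at 37 °C in TE buffer, pH 7.5. Percent free RNA is the blank-corrected intact/disrupted ratio.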

[3] = Apparent (surface) pKa of the LNP formulation (TNS assay); format: physicochemical; details: Table 1A
Summary of the method: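 LNP (0.04 mg/mL mRNA) mixed with TNS reagent in 21 buffers spanning about pH 3-12, in triplicate; fluorescence plotted against pH as sigmoidal curve. Apparent pKa taken as […] curve inflection point; validated in 1× PBS and 20 mM Tris w/8% sucrose.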

[4] = system: luciferase (Luc) mRNA; experiment: Luc expression, whole body bioluminescence after intravenous administration to mice; format: in vivo; details: for 6 h BLI Lipid/MC3: Table 3E
Summary of the method: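 Luc mRNA nanoparticle formulations given intravenously to mice (n=6) at 0.5 mg/kg; whole-body bioluminescence imaged at 3, 6 and 24 h. CD-1 mice received IP D-luciferin (200 μL of 15 mg/mL) 15 min before imaging; total flux quantified by region of interest.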

[5] = Lipid clearance: lipid level in mouse liver tissue (LC-MS/MS); format: in vivo; details: for % Remaining dose at 6 h / % Remaining dose at 24 h: Table 3E, mouse liver; for % Dose Remaining in Liver 6 h: Table 3D, intravenous
[6] = system: hEPO mRNA; experiment: hEPO expression after subcutaneous administration to mice; format: in vivo, female CD-1 mice; details: 0.5 mpk
Method: The effect of the lipids of the disclosure on protein expression upon subcutaneous administration was studied. Formulations containing lipids of the disclosure and an mRNA expressing luciferase or hEPO were administered subcutaneously to female CD-1 mice at 0.5 mpk. Expression levels were obtained via whole body luminescent imaging (BLI) at 3, 6 and 24 hours after injection and expression levels in liver, spleen and at the injection site were evaluated ex vivo after 24 hours. […] See also Tables 35 and 36, and FIGS. 19 and 27.
Table 36 summarizes the hEPO expression levels using various nanoparticle compositions of the disclosure as compared to the hEPO expression level using a formulation containing MC3 or Compound 18, following subcutaneous administration, as described above.

[7] = system: luciferase (Luc) mRNA; experiment: Luc expression in liver, lung, spleen and femur 6 hours after intravenous administration; format: in vivo; details: mice, 0.5 mpk
Summary of the method: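 LNP-formulated mRNA given IV to mice (n=3) at 0.5 mpk; at 6 h, bioluminescence imaged ex vivo 15 min after IP D-luciferin (15 mg/mL, 200 μL), organs imaged within 25 min. Values are total flux by region of interest.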

[8] = Table 1D, for subcutaneous administration, # formulated with hEPO mRNA
[9] = Table 1A, lipid:DSPC:cholesterol:PEG-DMG 50:10:38.5:1.5 mol %

Compound | PDI [1, 8] | Size (nm) [1, 8] [nm] | EE (%) [2] [%] | % EE [2] [%] | pKa [3] | % Remaining dose at 6 h [5] [%] | % Remaining dose at 24 h [5] [%] | PDI ([1]; Table 1A) | Size (nm) [1, 9] [nm] | 6 h BLI Lipid/MC3 ([4]; intravenous) | hEPO expression Lipid/Compound 18 ratio, 6 hr. [6] | hEPO expression Lipid/Compound 18 ratio, AUC [6] | further results
CCCCCCCCCC(=O)OC(C)CCCCCCN(CCO)CCCCCCCC(=O)OC(CCCCCCCC)CCCCCCCC (stereo not shown) [Compound 98, 8-((8-(Heptadecan-9-yloxy)-8-oxooctyl)(2-hydroxyethyl)amino)octan-2-yl decanoate] | 0.14 | 74.8 | 94.4 | 93.8 | 6.53 | 26.8 | 14.7 |  |  | 3.16 | 0.69 | 0.69 | 
CCCCCCCCCC(=O)OCCCCCCCN(CCO)CCCCCCCC(=O)OC(CCCCCCCC)CCCCCCCC [Compound 96, 7-((8-(Heptadecan-9-yloxy)-8-oxooctyl)(2-hydroxyethyl)amino)heptyl decanoate] | 0.14 | 82.6 | 79.04 | 94.4 | 6.600 |  |  | 0.160 | 120.5 |  | 1.98 | 1.72 | Lipid/MC3 AUC ([4]; Table 3D, intravenous): 6.3; AUC (p/s * h) ([4]; Table 3D, intravenous, Luc): 1.209E+012 p/s * h; Novel lipid/MC3 ratio, 6 hr. timepoint, i.v. ([4]; luciferase, intravenous, relative to MC3, Table 3G): 6.11; Total Flux 3 hours ([4]; mice, i.v., 0.5 mg/kg, Luc mRNA, 3 hours): 4.54E+10; Total Flux 6 hours ([4]; mice, i.v., 0.5 mg/kg, Luc mRNA, 6 hours): 1.05E+11; Total Flux 24 hours ([4]; mice, i.v., 0.5 mg/kg, Luc mRNA, 24 hours): 3.86E+09; % Dose Remaining in Liver 6 h ([5]; second column (head also says 6 h)): <1%; % Dose Remaining in Liver 6 h [5]: <1%; Flux in the liver ([7]; i.v., in words): highest; Total Flux Liver ([7]; intravenous, liver): 1.56E+10; Total Flux Lung ([7]; intravenous, lung): 3.43E+07; Total Flux Spleen ([7]; intravenous, spleen): 3.39E+08

Now from value to compound, other results behind:

PDI [1, 8] | Size (nm) [1, 8] [nm] | EE (%) [2] [%] | % EE [2] [%] | pKa [3] | % Remaining dose at 6 h [5] [%] | % Remaining dose at 24 h [5] [%] | PDI ([1]; Table 1A) | Size (nm) [1, 9] [nm] | Compound | 6 h BLI Lipid/MC3 ([4]; intravenous) | hEPO expression Lipid/Compound 18 ratio, 6 hr. [6] | hEPO expression Lipid/Compound 18 ratio, AUC [6] | further results
0.10 | 78.0 | 93.2 | 92.8 | 6.41 | 34.8 | 19.4 | 0.10 | 88.3 | CCCCCCCCCOC(=O)C(C)CCCCCCN(CCO)CCCCCCCOC(=O)C(CCCCCCCC)CCCCCCCC (stereo not shown) [Compound 163, 7-((2-Hydroxyethyl)(7-methyl-8-(nonyloxy)-8-oxooctyl)amino)heptyl 2-octyldecanoate] | 3.45 | 0.99 | 0.96 | 
0.14 | 74.3 | 92.9 | 93.5 | 6.50 | 29.1 | 12.7 | 0.14 | 84.6 | CCCCCCCCCC(=O)OC(C)CCCCCCN(CCO)CCCCCCCOC(=O)C(CCCCCCCC)CCCCCCCC (stereo not shown) [Compound 165, 7-((7-(Decanoyloxy)octyl)(2-hydroxyethyl)amino)heptyl 2-octyldecanoate] | 2.12 | 0.63 | 0.64 | 
0.08 | 75.7 | 91.2 | 94.1 | 6.39 | 39.0 | 26.2 | 0.13 | 84.5 | CCCCCCCCCOC(=O)C(C)CCCCCCN(CCO)CCCCCCCC(=O)OC(CCCCCCCC)CCCCCCCC (stereo not shown) [Compound 164, Nonyl 8-((8-(heptadecan-9-yloxy)-8-oxooctyl)(2-hydroxyethyl)amino)-2-methyloctanoate] | 1.24 | 0.50 | 0.56 | 
